Active and inactive are the calls of the source.
Columns and labels:
SUMO-activating enzyme [1] = molecular target: T1, SUMO-activating enzyme (Homo sapiens, UniProt Q9UBT2); assay: blockers of SAE1/SAE2–UBC9 SUMO transfer – biochemical, HTRF, uHTS, primary screen (AID 2006); format: protein-complex assay
SUMO-activating enzyme [2] = molecular target: T1, SUMO-activating enzyme; assay: blockers of UBC9-mediated SUMO conjugation – biochemical, AlphaScreen, SUMOylation inhibitor project, confirmation (AID 2018); format: functional
Estrogen receptor = molecular target: T2, Estrogen receptor (Homo sapiens, UniProt P03372);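 further: potency for inhibiting coactivator peptide recruitment to the receptor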
T2 sequence (P03372 whole entry): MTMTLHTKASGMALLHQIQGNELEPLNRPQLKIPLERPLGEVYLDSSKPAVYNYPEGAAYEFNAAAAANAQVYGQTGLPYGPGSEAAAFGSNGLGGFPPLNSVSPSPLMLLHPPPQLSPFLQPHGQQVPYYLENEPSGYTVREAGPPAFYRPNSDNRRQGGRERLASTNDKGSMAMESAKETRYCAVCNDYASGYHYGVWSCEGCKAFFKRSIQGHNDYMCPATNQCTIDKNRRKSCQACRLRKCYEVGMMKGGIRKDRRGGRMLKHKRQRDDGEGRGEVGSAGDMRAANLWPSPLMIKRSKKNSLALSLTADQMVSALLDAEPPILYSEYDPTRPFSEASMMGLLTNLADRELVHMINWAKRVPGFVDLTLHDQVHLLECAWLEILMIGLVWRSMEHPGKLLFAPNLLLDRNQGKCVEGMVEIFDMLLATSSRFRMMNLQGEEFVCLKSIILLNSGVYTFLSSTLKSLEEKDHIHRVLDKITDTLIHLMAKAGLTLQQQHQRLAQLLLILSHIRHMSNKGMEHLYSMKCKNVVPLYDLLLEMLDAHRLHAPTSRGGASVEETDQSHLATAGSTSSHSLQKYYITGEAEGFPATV

[3] = molecular target: Voltage-gated inwardly rectifying potassium channel KCNH2 (Homo sapiens, UniProt Q12809); details: Potency;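 further: confirmatory quantitative high-throughput screen measuring inhibition of hERG channel activity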
Sequence of Voltage-gated inwardly rectifying potassium channel KCNH2 (Q12809 whole entry): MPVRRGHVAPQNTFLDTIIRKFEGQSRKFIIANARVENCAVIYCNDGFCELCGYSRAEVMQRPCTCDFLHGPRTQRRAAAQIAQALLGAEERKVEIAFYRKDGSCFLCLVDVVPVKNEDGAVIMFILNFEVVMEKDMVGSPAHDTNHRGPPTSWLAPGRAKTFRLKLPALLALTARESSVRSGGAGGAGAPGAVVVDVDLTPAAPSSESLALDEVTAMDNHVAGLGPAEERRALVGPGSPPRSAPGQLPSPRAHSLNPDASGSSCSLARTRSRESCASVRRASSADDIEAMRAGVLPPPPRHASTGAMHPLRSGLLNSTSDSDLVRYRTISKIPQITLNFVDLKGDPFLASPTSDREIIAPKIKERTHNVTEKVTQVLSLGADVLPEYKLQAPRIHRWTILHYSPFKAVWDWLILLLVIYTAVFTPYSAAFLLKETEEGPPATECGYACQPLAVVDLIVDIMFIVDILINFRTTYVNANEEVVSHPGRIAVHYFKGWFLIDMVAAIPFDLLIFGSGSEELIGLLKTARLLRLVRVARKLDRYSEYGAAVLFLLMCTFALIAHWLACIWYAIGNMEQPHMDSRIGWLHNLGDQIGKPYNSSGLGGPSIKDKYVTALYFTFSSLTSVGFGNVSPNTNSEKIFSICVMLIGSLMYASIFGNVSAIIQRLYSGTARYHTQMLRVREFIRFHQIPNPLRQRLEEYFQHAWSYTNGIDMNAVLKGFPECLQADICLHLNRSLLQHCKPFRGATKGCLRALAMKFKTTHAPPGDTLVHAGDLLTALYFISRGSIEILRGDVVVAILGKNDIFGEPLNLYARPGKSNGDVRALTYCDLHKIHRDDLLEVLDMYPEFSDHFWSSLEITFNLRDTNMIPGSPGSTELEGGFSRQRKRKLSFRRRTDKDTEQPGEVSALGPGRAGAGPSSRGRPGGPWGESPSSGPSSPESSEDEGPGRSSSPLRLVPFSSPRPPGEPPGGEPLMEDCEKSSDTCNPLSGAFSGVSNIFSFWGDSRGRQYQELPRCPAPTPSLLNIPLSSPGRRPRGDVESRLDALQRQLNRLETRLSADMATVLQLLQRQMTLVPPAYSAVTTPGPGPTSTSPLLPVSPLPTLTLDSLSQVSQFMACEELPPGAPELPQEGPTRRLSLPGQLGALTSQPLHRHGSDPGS

[4] = molecular target: Voltage-dependent T-type calcium channel subunit alpha-1H (Homo sapiens, UniProt O95180); format: functional;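 further: channel activity triggered by adding a high calcium stimulation buffer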
Sequence of Voltage-dependent T-type calcium channel subunit alpha-1H (O95180 whole entry): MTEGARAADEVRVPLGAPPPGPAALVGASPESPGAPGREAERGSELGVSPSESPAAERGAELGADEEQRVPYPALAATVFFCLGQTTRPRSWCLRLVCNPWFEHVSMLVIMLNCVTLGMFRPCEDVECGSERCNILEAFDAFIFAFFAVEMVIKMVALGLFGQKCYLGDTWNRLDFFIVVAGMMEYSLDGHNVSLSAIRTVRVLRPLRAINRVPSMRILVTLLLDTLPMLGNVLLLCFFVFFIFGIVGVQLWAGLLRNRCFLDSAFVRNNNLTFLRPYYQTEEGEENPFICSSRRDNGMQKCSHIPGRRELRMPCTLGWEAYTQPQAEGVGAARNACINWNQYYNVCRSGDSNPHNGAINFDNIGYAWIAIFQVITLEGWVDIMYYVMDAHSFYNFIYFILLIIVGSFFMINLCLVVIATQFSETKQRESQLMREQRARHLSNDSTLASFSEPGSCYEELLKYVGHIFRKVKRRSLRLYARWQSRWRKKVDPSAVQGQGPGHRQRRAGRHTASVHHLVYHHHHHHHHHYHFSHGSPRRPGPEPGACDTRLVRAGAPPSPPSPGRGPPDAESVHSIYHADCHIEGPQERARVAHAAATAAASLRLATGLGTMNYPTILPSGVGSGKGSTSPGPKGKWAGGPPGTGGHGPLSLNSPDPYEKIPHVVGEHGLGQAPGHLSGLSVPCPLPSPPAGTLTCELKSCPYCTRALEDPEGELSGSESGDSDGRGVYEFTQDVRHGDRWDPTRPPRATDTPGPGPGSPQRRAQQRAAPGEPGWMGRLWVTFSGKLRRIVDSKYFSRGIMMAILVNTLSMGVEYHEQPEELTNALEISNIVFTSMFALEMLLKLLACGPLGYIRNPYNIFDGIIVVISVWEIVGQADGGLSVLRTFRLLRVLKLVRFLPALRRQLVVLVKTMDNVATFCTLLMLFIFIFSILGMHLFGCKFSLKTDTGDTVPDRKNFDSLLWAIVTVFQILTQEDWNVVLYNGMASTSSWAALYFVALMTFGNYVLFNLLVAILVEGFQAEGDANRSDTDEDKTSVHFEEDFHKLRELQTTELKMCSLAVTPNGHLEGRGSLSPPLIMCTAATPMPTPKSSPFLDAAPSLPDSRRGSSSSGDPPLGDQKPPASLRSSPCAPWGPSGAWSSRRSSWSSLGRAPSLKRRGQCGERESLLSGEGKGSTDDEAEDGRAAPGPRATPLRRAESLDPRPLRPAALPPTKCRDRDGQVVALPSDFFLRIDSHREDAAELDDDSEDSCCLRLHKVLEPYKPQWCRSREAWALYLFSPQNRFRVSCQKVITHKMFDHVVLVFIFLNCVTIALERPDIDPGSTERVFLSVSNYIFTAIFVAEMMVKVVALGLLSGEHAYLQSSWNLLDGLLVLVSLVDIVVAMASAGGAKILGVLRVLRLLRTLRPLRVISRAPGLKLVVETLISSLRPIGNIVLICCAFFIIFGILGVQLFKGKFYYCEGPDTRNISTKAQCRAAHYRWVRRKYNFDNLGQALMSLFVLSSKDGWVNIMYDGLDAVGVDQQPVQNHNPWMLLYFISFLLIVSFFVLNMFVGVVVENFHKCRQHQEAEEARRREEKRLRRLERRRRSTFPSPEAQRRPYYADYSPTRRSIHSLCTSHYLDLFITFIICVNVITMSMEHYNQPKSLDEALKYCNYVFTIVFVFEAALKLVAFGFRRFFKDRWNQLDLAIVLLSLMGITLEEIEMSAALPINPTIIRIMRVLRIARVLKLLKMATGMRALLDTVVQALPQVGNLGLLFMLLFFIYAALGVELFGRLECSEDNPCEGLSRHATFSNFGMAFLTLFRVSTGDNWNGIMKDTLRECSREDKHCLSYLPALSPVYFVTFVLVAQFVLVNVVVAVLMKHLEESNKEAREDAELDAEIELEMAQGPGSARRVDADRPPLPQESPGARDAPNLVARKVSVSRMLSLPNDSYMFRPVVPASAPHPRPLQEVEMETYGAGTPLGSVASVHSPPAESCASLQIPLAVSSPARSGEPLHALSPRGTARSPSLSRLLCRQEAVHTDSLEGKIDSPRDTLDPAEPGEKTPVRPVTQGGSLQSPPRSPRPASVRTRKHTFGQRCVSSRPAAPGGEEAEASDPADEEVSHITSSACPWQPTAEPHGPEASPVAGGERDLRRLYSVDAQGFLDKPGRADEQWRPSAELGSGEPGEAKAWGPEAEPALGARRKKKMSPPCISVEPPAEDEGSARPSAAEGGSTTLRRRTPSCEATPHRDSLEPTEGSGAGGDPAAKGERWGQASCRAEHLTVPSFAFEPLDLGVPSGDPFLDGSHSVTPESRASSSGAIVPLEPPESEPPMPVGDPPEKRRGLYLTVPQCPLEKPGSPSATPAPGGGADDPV

Troponin, cardiac muscle = Troponin, cardiac muscle (Homo sapiens, UniProt P19429+P45379+P63316); assay: Fluorescence-based biochemical high throughput dose response assay for activators of the calcium sensitivity of cardiac Regulated Thin Filaments (RTF). [Related pubchem assays (depositor defined):AID493008, AID493018, AID504382, AID504383]; format: protein-complex assay
[5] = molecular target: T3, Lysine-specific demethylase 4C (Homo sapiens, UniProt Q9H3R0); assay: inhibition of JMJD2C H3K9me3 demethylation – biochemical, DELFIA europium, cherry-picked samples, dose response (AID 488835); format: functional
T3 sequence (Q9H3R0 whole entry): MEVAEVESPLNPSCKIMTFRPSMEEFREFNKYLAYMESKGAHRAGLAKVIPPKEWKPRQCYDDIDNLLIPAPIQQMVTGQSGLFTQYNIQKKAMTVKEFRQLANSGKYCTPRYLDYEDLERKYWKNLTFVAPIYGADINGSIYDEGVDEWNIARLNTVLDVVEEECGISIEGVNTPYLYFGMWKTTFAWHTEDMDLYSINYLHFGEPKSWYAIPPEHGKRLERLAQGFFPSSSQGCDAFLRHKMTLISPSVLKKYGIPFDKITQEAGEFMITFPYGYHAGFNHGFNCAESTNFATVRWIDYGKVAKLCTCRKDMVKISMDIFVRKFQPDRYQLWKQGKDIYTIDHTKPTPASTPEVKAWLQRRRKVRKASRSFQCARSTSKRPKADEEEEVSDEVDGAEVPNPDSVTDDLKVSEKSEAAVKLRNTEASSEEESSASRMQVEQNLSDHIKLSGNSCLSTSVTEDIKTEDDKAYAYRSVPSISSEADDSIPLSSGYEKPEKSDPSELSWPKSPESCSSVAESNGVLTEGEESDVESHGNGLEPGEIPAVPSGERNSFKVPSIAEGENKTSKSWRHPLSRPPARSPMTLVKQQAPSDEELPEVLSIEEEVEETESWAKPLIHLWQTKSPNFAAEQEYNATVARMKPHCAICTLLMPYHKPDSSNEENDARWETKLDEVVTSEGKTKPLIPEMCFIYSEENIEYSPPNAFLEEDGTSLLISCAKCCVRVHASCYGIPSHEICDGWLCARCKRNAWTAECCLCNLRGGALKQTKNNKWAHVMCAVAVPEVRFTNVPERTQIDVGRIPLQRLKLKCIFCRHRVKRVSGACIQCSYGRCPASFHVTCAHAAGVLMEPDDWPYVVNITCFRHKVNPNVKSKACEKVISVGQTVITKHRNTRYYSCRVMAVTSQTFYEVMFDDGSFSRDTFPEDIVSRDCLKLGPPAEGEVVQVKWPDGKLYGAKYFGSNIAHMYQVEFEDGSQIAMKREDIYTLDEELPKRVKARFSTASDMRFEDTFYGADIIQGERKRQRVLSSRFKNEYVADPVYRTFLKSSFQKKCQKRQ

[6] = molecular target: T4, Short transient receptor potential channel 4 (Mus musculus, UniProt Q9QUQ5); assay: calcium entry via TRPC4 opening agents – cell-based, HEK293 TRPC4/mu-opioid, Fluo-4 calcium, dose response (AID 434937); format: functional
T4 sequence (Q9QUQ5 whole entry): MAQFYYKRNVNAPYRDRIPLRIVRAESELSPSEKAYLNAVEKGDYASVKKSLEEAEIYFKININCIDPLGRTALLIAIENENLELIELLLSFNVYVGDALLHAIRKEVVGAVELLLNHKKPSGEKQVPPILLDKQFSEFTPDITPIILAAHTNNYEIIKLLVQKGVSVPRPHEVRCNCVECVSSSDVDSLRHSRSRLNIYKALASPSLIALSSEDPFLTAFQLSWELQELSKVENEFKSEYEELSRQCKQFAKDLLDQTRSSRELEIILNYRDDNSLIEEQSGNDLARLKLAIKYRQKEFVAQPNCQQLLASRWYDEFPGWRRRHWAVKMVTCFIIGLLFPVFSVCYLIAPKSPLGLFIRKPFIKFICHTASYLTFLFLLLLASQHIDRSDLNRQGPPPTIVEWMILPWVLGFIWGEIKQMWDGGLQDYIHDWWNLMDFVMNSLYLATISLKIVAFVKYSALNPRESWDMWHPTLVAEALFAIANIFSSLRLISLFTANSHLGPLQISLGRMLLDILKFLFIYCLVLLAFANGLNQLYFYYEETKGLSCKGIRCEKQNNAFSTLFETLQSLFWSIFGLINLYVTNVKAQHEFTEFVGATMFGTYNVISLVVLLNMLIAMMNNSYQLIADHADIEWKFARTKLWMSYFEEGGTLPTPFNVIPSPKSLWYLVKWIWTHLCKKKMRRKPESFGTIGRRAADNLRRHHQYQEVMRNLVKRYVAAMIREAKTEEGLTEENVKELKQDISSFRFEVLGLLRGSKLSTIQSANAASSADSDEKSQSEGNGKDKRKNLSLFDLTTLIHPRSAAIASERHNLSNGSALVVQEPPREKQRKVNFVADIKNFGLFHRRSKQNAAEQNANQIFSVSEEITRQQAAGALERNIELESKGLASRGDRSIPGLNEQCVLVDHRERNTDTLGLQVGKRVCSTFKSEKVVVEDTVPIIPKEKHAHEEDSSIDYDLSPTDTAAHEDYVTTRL

[7] = luciferase reporter signal suppression in cells – H4 neuroglioma cells, luminescence, dose response (AID 1990); format: functional, cell-based
[8] = alpha-synuclein stem-loop luciferase translation blockers – H4 neuroglioma cells, luminescence, confirmation (AID 1988); format: functional, cell-based
Fatty acid synthase [9] = molecular target: T5, Fatty acid synthase (Homo sapiens, UniProt P49327); assay: inhibition of human FAS-TE enzyme activity – biochemical, kinetic fluorescence intensity, dose response (AID 624326); format: functional;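 further: rate of fluorescence rise from hydrolysis of a fluorogenic O-methyl fluorescein ester substrate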
[10] = Trypanosoma cruzi growth suppression in host cells – NIH3T3 host cells, beta-gal luminescence, confirmation (AID 2044); format: functional, cell-based;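 further: intracellular parasites grown in NIH/3T3 mouse fibroblasts as host cells; luminescent beta-galactosidase reporter signal from transgenic T. cruzi replicating inside host cells; inhibitors lower the luminescence signal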
[11] = Luminescence Cell-Based Dose Response HTS to Identify Inhibitors of 5'UTR Stem-Loop Driven Prion Protein mRNA Translation in H4 Neuroglioblastoma Cells. [Related pubchem assays: 1827 (Project Summary), 1813 (Primary HTS)]; format: functional
[12] = HepG2 cell cytotoxicity, dose response, cytotoxicity control for non-replicating M. tuberculosis project (AID 489018); format: functional; details: Mycobacterium tuberculosis
[13] = HEK-293T cell viability reduction – luminescence, B-cell screen hits, cytotoxicity control for BCR NF-kB inhibitor project, dose response (AID 489021); format: functional, cell-based;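 further: HEK-293T cells carrying an NF-kB luciferase reporter; cells exposed to compound for about 14 hours before viability readout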
Fatty acid synthase [14] = molecular target: T5, Fatty acid synthase; assay: inhibition of human FAS-TE enzyme activity – biochemical, endpoint fluorescence intensity, uHTS hits, dose response (AID 624327); format: functional;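 further: fluorescence from hydrolysis of an O-methyl fluorescein acyl ester substrate by the enzyme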
cells = format: functional
[15] = NIH3T3 cell viability loss – ATP luminescence, mouse fibroblasts, counter-screen, dose response (AID 2010); format: functional, cell-based;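 further: cells exposed to compound for about 90 hours before reading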
[16] = THP-1 cell cytotoxicity, dose response, cytotoxicity control for non-replicating M. tuberculosis project (AID 489025); format: functional
[17] = Vero E6 cell cytotoxicity, dose response, cytotoxicity control for non-replicating M. tuberculosis project, secondary assay (AID 492998); format: functional, VeroE6; details: Vero C1008

T1 sequence (Q9UBE0 whole entry): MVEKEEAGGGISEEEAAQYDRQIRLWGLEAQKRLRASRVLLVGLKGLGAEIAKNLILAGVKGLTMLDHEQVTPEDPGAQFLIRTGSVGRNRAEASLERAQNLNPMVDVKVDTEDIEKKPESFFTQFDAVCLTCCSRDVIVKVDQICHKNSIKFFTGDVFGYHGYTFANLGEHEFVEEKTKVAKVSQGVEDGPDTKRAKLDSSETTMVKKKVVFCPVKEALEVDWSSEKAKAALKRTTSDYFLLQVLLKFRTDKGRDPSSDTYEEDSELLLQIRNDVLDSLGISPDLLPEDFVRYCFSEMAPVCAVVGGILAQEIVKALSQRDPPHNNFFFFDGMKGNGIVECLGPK
T1 sequence (Q9UBT2 whole entry): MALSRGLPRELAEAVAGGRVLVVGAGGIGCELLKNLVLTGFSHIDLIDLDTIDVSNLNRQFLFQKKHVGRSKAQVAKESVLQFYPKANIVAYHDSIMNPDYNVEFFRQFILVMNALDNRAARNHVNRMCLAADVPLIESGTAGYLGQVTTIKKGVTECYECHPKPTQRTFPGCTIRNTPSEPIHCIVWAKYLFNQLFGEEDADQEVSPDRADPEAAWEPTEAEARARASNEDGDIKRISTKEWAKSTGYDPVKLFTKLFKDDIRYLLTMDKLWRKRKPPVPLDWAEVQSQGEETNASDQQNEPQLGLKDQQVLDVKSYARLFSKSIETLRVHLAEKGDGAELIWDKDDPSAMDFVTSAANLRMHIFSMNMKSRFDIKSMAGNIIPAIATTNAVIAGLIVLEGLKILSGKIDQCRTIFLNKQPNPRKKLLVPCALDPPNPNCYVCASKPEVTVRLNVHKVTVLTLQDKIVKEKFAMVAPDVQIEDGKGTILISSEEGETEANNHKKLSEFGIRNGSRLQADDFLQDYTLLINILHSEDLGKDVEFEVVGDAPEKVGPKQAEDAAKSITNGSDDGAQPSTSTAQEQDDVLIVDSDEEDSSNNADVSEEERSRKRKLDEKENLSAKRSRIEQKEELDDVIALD

Cc1ccc(NC(=O)Cn2nc(C(=O)Nc3ccc(C)cc3)ccc2=O)cc1
IC50 (SUMO-activating enzyme [1]): 18.3 µM (active) | IC50 (SUMO-activating enzyme [2]): 30.8 µM (active)

CC1Cc2ccccc2N1C(=O)CSc1nnc(NC(=O)Cc2cccs2)s1 (stereo not drawn)
IC50 (Estrogen receptor): 34 µM (not active)

CC(C)N=C=NC(C)C
AC50 [3]: 35.5 µM (inconclusive)

Cc1cccc(C(=O)N2CCN(c3ccc(C(F)(F)F)cn3)CC2)c1C
EC50 [4]: 9.85 µM (active)

Cc1ccc(-c2noc(CCC(=O)N(C)c3ccccc3C)n2)cc1
EC50 [4]: 4.56 µM (active)

O=C(CN1CCN(c2ccccc2F)CC1)Nc1cccnc1Cl
EC50 (Troponin, cardiac muscle): > 71.5 µM (inactive)

CCc1ccccc1N(C)C(=O)CCc1nc(-c2ccc(C)cc2)no1
EC50 [4]: 5.38 µM (active)

COc1ccc(CSc2nnc(Cc3sc(-c4ccccc4)nc3-c3ccccc3)o2)cc1
EC50 [4]: 5.33 µM (active)

Cc1ccc(-c2csc3nc4cc(C(=O)NC5CCC(O)CC5)ccc4c(=O)n23)cc1 (stereo not drawn)
AC50 [5]: 3.96 µM (active)

CC1(c2ccc(Cl)cc2Cl)OCC(Cn2ccnc2)O1 (stereo not drawn)
EC50 [6]: 2.37 µM (active)

O=C(Nc1ccccc1C(=O)Nc1nnc(C(F)(F)F)s1)c1ccccc1
EC50 [7]: > 120 µM (not active) | EC50 [8]: 19.3 µM (active) | IC50 (Fatty acid synthase [9]): 23.5 µM (inactive) | EC50 [10]: 0.927 µM (active) | EC50 [11]: > 120 µM (not active) | CC50 [12]: 3.9 µM (active) | IC50 [13]: 46.2 µM (inactive) | IC50 (Fatty acid synthase [14]): 80 µM (inactive) | IC50 (cells): 15.3 µM (active) | EC50 [15]: 2.53 µM (active) | CC50 [16]: 3.58 µM (active) | CC50 [17]: > 20 µM (active)

— ChEMBL document CHEMBL1201862, “PubChem BioAssay data set” (2004)
